Paper PMC5654082 (Malaria Journal, 2017)
Where two headings read alike, the source gives them in different places. Marks after values point to notes of the source that are not given here.

Tests used:
[1] = tested on: OCT1; design: method as in PMID 16263091; conditions: stably transfected HEK293 cells; read-out: IC50 of [3H]MPP+ uptake, OCT1; cited from earlier work
[2] = Maximum plasma concentration from in vivo pharmacokinetic studies after therapeutic dosing; conditions: human, the literature Cmax (ng/mL) of Table 2 expressed in µM
Description: As Cmax the (geometric) mean or median maximum plasma concentrations obtained from previous in vivo pharmacokinetic studies after therapeutic dosing was used.

[3] = Thai patients with falciparum malaria; cited from earlier work
[4] = tested on: OCT2; design: method as in PMID 16263091; conditions: stably transfected HEK293 cells; read-out: IC50 of [3H]MPP+ uptake, OCT2; cited from earlier work
[5] = tested on: OCT1; design: method as in PMID 18788725; conditions: 100 µM; ASP as substrate; cited from earlier work
[6] = adult patients with uncomplicated falciparum malaria; (geometric) mean or median; cited from earlier work
[7] = tested on: OCT2; design: method as in PMID 21599003; conditions: 20 µM; ASP as substrate; cited from earlier work

## C=C[C@H]1C[N@@]2CC[C@H]1C[C@H]2[C@H](O)c1ccnc2ccc(OC)cc12 [Quinine, quinine]
[1]
  IC50: 13 µM
[2]
  Cmax: 35 µM
[3]
  Unbound fraction: 0.11^g [36]
[4]
  IC50: 23 µM
[5]
  Inhibition of OCT1: 60%
[6]
  Cmax: 11430^f [50] ng/mL
[7]
  Inhibition of OCT2: 72%
